pKi: −log10 of the molar value.
Target: T1, ENPP1 (Homo sapiens, UniProt P22413)
T1 sequence (P22413 1-925): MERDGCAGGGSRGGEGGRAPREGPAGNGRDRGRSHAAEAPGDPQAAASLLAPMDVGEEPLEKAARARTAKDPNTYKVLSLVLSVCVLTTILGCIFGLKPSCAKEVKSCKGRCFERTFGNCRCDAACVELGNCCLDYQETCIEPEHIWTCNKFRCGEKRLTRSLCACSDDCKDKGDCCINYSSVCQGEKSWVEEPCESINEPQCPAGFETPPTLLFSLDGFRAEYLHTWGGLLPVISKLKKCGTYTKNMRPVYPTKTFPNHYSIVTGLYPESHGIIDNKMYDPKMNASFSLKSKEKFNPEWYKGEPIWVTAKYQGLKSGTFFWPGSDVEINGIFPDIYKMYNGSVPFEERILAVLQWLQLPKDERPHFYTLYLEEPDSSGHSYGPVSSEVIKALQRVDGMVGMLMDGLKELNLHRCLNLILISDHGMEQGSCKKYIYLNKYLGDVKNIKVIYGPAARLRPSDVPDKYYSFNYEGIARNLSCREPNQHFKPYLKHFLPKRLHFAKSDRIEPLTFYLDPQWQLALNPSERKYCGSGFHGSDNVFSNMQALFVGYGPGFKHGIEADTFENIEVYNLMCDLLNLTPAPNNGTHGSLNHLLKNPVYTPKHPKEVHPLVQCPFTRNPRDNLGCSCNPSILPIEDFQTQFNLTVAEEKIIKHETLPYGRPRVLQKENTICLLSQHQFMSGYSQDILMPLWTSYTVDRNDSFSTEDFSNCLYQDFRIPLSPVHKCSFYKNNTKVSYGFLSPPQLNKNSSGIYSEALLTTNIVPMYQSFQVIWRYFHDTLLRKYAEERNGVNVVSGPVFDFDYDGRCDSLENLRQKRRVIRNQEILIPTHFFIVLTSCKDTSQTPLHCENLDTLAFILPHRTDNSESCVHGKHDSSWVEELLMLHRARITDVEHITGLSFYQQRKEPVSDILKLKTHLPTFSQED
Assay: Indirect quantitation of 2',3'-cGAMP hydrolysis (AMP-Glo Assay kit)
Format: biochemical
Settings: cGAMP substrate; Ki from IC50 by Cheng-Prusoff; read-out: ENPP1 Inhibition -cGAMP: Ki

Compound | pKi
COc1ccc2c(-c3cc4c(cc3F)CCN(S(N)(=O)=O)C4)ccnc2c1 [Example 409, 6-fluoro-7-(7-methoxyquinolin-4-yl)-3,4-dihydroisoquinoline-2(1H)-sulfamide] | < 6.00
COc1cc2nccc(N3CCC(CCNS(=O)(=O)NCC(F)(F)F)CC3)c2cc1OC [Example 177, 2-(1-(6,7-dimethoxyquinolin-4-yl)piperidin-4-yl)ethan-1-amino(N-trifluoroethyl) sulfonamide] | < 6.00
Cn1ncc2c(N3CCC(CCNS(N)(=O)=O)CC3)ccnc21 [Example 135, N-(2-(1-(1-methyl-1H-pyrazolo[3,4-b]pyridin-4-yl)piperidin-4-yl)ethyl)sulfamide] | 6.00 to 7.00
COc1cc2ncnc(N3CCC(CNc4nc5ccccc5[nH]4)CC3)c2cc1OC [Example 251, N-((1-(6,7-dimethoxyquinazolin-4-yl)piperidin-4-yl)methyl)-1H-benzo[d]imidazol-2-amine] | < 6.00
COc1cc(NC(C)=O)c(C(=O)N2CCC(CCNS(N)(=O)=O)CC2)cc1OC [Example 44, N-(4,5-dimethoxy-2-(4-(2-(sulfamoylamino)ethyl)piperidine-1-carbonyl)phenyl)acetamide] | < 6.00
NS(=O)(=O)NCCC1CCN(C(=O)c2ccccc2)CC1 [Example 50, N-(2-(1-(benzoyl)piperidin-4-yl)ethyl)sulfamide] | < 6.00
COc1ccc2c(Oc3ccc4c(c3)CCC(=O)N4)ccnc2c1 [Example 318, 6-((7-methoxyquinolin-4-yl)oxy)-3,4-dihydroquinolin-2(1H)-one] | < 6.00
COc1cc2nccc(Oc3ccc(N)c(F)c3)c2cc1OC [Example 344, 4-((6,7-dimethoxyquinolin-4-yl)oxy)-2-fluoroaniline] | < 6.00
COc1cc2ncc(-c3ccc4c(c3)CN(S(N)(=O)=O)CC4)nc2cc1OC [Example 295, 7-(6,7-dimethoxyquinoxalin-2-yl)-3,4-dihydroisoquinoline-2(1H)-sulfonamide] | < 6.00
COc1cc2ncnc(N3CCC(CCNS(C)(=O)=O)CC3)c2cc1OC [Example 338, N-(2-(1-(6,7-dimethoxyquinazolin-4-yl)piperidin-4-yl)ethyl)methanesulfonamide] | 6.00 to 7.00
COc1cc2ncnc(N3CCC(CCNS(=O)(=O)c4ccccc4)CC3)c2cc1OC [Example 116, N-(2-(1-(6,7-dimethoxyquinazolin-4-yl)piperidin-4-yl)ethyl)benzenesulfonamide] | < 6.00
COc1ccc(NC(=O)C2CCC(CNS(N)(=O)=O)CC2)cc1OC (centres unmarked) [Example 133, N-(3,4-dimethoxyphenyl)-4-((sulfamoylamino)methyl)cyclohe xane-1-carboxamide] | < 6.00
COc1cc2ncnc(N3CCC(CCNS(=O)(=O)N4CCOCC4)CC3)c2cc1OC [Example 132, N-(2-(1-(6,7-dimethoxyquinazolin-4-yl)piperidin-4-yl)ethyl)morpholine-4-sulfonamide] | 6.00 to 7.00
NS(=O)(=O)NCCC1CCN(c2ccnc3cc4c(cc23)OCO4)CC1 [Example 215, N-(2-(1-([1,3]dioxolo[4,5-g]quinolin-8-yl)piperidin-4-yl)ethyl)sulfamide] | < 6.00
COc1cc2ncnc(N3CCc4c(cccc4S(=O)(=O)N4CCN(C)CC4)C3)c2cc1OC [Example 41, 6,7-dimethoxy-4-(5-((4-methylpiperazin-1-yl)sulfonyl)-3,4-dihydroisoquinolin-2(1H)-yl)quinazoline] | < 6.00
CNS(=O)(=O)NCCC1CCN(c2ncnc3cc(OC)c(OC)cc23)CC1 [Example 168, 2-(1-(6,7-dimethoxyquinazolin-4-yl)piperidin-4-yl)ethan-1-amino(N-methyl)sulfonamide] | < 6.00
COc1ccc2c(-c3ccc4c(c3)CNCC4)c(C#N)cnc2c1 [Example 276, 7-methoxy-4-(1,2,3,4-tetrahydroisoquinolin-7-yl)quinoline-3-carbonitrile] | < 6.00
COc1cc2nccc(N3CCC(CN4CCCNS4(=O)=O)CC3)c2cc1OC [Example 223, 2-((1-(6,7-dimethoxyquinolin-4-yl)piperidin-4-yl)methyl)-1,2,6-thiadiazinane 1,1-dioxide] | < 6.00
COc1cc2ncnc(N3CCC(CCNS(=O)(=O)Nc4ccccc4)CC3)c2cc1OC [Example 183] | < 6.00
COc1ccc2c(-c3ccc4c(c3)CCN(S(N)(=O)=O)C4)ccnc2c1 [Example 366, 6-(7-methoxyquinolin-4-yl)-3,4-dihydroisoquinoline-2(1H)-sulfonamide] | < 6.00
COc1cc2ncc(C#N)c(Oc3ccc(S(N)(=O)=O)cc3)c2cc1F [Example 76, 4-((3-cyano-6-fluoro-7-methoxyquinolin-4-yl)oxy)benzenesulfonamide] | > 7.00
CNc1cc(OC)c(OC)cc1C(=O)N1CCC(CCNS(N)(=O)=O)CC1 [Example 123, N-(2-(1-(4,5-dimethoxy-2-(methylamino)benzoyl)piperidin-4-yl)ethyl)sulfamide] | < 6.00
Cc1ncnc(N2CCC(NS(N)(=O)=O)CC2)c1C [Example 39, N-(1-(5,6-dimethylpyrimidin-4-yl)piperidin-4-yl)sulfamide] | < 6.00
COc1cc2cnn(-c3ccc(CCNS(N)(=O)=O)cc3)c2cc1OC [Example 210, N-(4-(5,6-dimethoxy-1H-indazol-1-yl)phenethyl)sulfamide] | < 6.00

Other lines, results leading:

pKi | Compound
> 7.00 | COc1cc2c(=O)ccn(Cc3ccc(NS(N)(=O)=O)cc3)c2cc1OC [Example 151, N-(4-((6,7-dimethoxy-4-oxoquinolin-1 (4H)-yl)methyl)phenyl) sulfamide]
< 6.00 | COc1cc2c(Oc3ccc(NS(N)(=O)=O)cc3)ccnc2cn1 [Example 411, N-(4-((6-methoxy-1,7-naphthyridin-4-yl)oxy)phenyl)sulfamide]
< 6.00 | COc1cc2ncnc(NC(C)(C)c3ccc(NS(N)(=O)=O)cc3)c2cc1OC [Example 287, N-(4-(2-((6,7-dimethoxyquinazolin-4-yl)amino)propan-2-yl)phenyl)sulfamide]
> 7.00 | COc1cc2nccc(Oc3ccc(NS(=O)(=O)C(F)(F)F)cc3)c2cc1OC [Example 162, N-(4-((6,7-dimethoxyquinolin-4-yl)oxy)phenyl)-1,1,1-trifluoromethanesulfonamide]
> 7.00 | COc1ccc2c(Oc3ccc(NS(N)(=O)=O)c(OC)c3)ccnc2n1 [Example 421, N-(2-methoxy-4-((7-methoxy-1,8-naphthyridin-4-yl)oxy)phenyl)sulfamide]
< 6.00 | COc1cc2ncnc(OCc3ccc(NS(N)(=O)=O)cc3)c2cc1OC [Example 179, N-(4-(((6,7-dimethoxyquinazolin-4-yl)oxy)methyl)phenyl)sulfamide]
< 6.00 | COc1cc2ncc(Oc3ccc(NS(N)(=O)=O)cc3)nc2cc1OC [Example 280, N-(4-((6,7-dimethoxyquinoxalin-2-yl)oxy)phenyl)sulfamide]
< 6.00 | COc1ccc2c(-c3ccc(CNS(N)(=O)=O)cc3OC)ccnc2c1 [Example 383, N-(3-methoxy-4-(7-methoxyquinolin-4-yl)benzyl)sulfamide]
> 7.00 | COc1ccc2c(Oc3ccc(S(N)(=O)=O)cc3)c(C#N)cnc2c1 [Example 327, 4-((3-cyano-7-methoxyquinolin-4-yl)oxy)benzenesulfonamide]
< 6.00 | COc1cc2ncc(Nc3ccc(NS(N)(=O)=O)cc3)nc2cc1OC [Example 286, N-(4-((6,7-dimethoxyquinoxalin-2-yl)amino)phenyl)sulfamide]
< 6.00 | NS(=O)(=O)Nc1ccc(Oc2ccnc3[nH]ccc23)cc1 [Example 321, N-(4-((1H-pyrrolo[2,3-b]pyridin-4-yl)oxy)phenyl)sulfamide]
6.00 to 7.00 | COc1ccc2c(Oc3ccc(NS(N)(=O)=O)cc3Cl)ccnc2c1 [Example 329, N-(3-chloro-4-((7-methoxyquinolin-4-yl)oxy)phenyl)sulfamide]
6.00 to 7.00 | COc1ccc2c(-c3ccc(CNS(N)(=O)=O)cc3C)ccnc2c1 [Example 328, N-(4-(7-methoxyquinolin-4-yl)-3-methylbenzyl)sulfamide]
< 6.00 | CNC(=O)c1cc(Oc2ccc(NS(N)(=O)=O)cc2)ccn1 [Example 127, N-methyl-4-(4-(sulfamoylamino)phenoxy)picolinamide]
> 7.00 | COc1ccc2c(Oc3ccc(N(C4CC4)S(N)(=O)=O)cc3)ccnc2c1 [Example 310, N-cyclopropyl-N-(4-((7-methoxyquinolin-4-yl)oxy)phenyl)sulfamide]
> 7.00 | COc1ccc2c(Oc3ccc(NS(N)(=O)=O)c(OC)c3)ccnc2c1 [Example 78, N-(2-methoxy-4-((7-methoxyquinolin-4-yl)oxy)phenyl)sulfamide]
< 6.00 | COc1cc2nccc(N(C)Cc3ccc(NS(N)(=O)=O)cc3)c2cc1OC [Example 255, N-(4-(((6,7-dimethoxyquinolin-4-yl)(methyl)amino)methyl)phenyl)s ulfamide]
